Results on nine compounds are retold here after ChEMBL document CHEMBL3046524, “Synthesis and biological evaluation of N 1,N 2-bis-[4-(t-amino)-2-butynyl]phthalamides as oxotremorine and acetylcholine antagonists” (Med Chem Res, 2013).

Calls of active or inactive are those of the source. The calls are words filed in the database; no cut-off is given here.

The test system of test [1] is Mus musculus. Nature of the test: Antitremor activity in ip dosed Mus musculus (mouse) assessed as concentration required to inhibit oxotremorine-induced tremor effect administered 15 to 20 min prior to oxotremorine challenge measured 15 to 20 min post oxotremorine challenge. The test is classed as functional.
Test [2] deals with Ileum. As to the kind of experiment: Ionotropic activity in Cavia porcellus (guinea pig) ileum assessed as inhibition of acetylcholine-induced contraction after 15 min by physiographic analysis. The test is classed as functional, tissue-based. The note with it: 0.25 h, read-out: pA2 (converted).
Test [3] deals with Ileum. Nature of the test: Ionotropic activity in Cavia porcellus (guinea pig) ileum assessed as concentration required to inhibit acetylcholine-induced contraction after 15 min by physiographic analysis. The test is classed as functional.
Test [4] has as its system Mus musculus. As to the kind of experiment: Antitremor activity in ip dosed Mus musculus (mouse) assessed as inhibition of oxotremorine-induced tremor effect administered 15 to 20 min prior to oxotremorine challenge measured 15 to 20 min post oxotremorine challenge. The test is classed as functional, organism-based.

With `O=C(NCC#CCN1CCCCC1)c1ccccc1C(=O)NCC#CCN1CCCCC1`, the INH in test [1] turned out to be 8 µmol/kg; in test [3], 1.6 ×10⁻⁶ mol/L. Besides, the Kb in test [2] was 2510 nM.
Take `CC1CCCCN1CC#CCN1C(=O)c2ccccc2C1=O` (stereo not given): the INH in test [1] is 9.6 µmol/kg; in test [3] it was 1.2 ×10⁻⁶ mol/L. The Kb in test [2] was 1260 nM.
As to `O=C(NCC#CCN1CCCCCCC1)c1ccccc1C(=O)NCC#CCN1CCCCCCC1`, the Kb in test [2] was 1260 nM. The INH in test [3] is given as 5 ×10⁻⁶ mol/L.
Turning to `CN1[C@@H]2CC[C@H]1C[C@@H](OC(=O)C(CO)c1ccccc1)C2` (stereo not given in full) [ATROPINE], the INH in test [1] came out at 2.8 µmol/kg; in test [3] it was 3.7 ×10⁻⁹ mol/L. In test [2], the Kb was 3.98 nM.
On to `O=C1c2ccccc2C(=O)N1CC#CCN1CCCCCCC1`, for which the INH in test [1] came out at 2.4 µmol/kg; in test [3] it was 8 ×10⁻⁷ mol/L. Also, the Kb in test [2] was 794 nM.
In the case of `O=C1c2ccccc2C(=O)N1CC#CCN1CCCCC1`, the INH in test [1] is 7.6 µmol/kg; in test [3] it was 1.6 ×10⁻⁶ mol/L. The Kb in test [2] was 1580 nM.
Take `CC1CCCCN1CC#CCNC(=O)c1ccccc1C(=O)NCC#CCN1CCCCC1C` (stereo not given): in test [2], the Kb was 2000 nM. Besides, the INH in test [3] amounted to 1.2 ×10⁻⁶ mol/L.
With `CC1CCCC(C)N1CC#CCNC(=O)c1ccccc1C(=O)NCC#CCN1C(C)CCCC1C` (stereo not given), the Kb in test [2] is 1580 nM. Also, the INH in test [3] came out at 3 ×10⁻⁶ mol/L. Further, the inhibition entry in test [4] was “inactive”.
Taken in the same sequence, the figures for `CC1CCCC(C)N1CC#CCN1C(=O)c2ccccc2C1=O` (stereo not given) were 2000 nM, 2 ×10⁻⁶ mol/L and “inactive”.
